14 compounds from patent publication US8669256B2, “Substituted thieno[2,3-b]pyrazine compounds as modulators of B-Raf kinase activity” (Merck Sharp & Dohme B.V., priority 2010, dated 2014) can be followed below.

The IC50 is the point on the concentration scale where inhibition reaches its midpoint.

Molecules are shown by their SMILES. Where two headings read alike, the source gives them in different places.

Experiment [1] deals with T1, GST-tagged human recombinant active B-Raf (Δ1-415) (Homo sapiens, UniProt P15056).
T1 construct: GST; purchased Upstate/Millipore
T1 sequence (P15056 416-766, stated change not applied): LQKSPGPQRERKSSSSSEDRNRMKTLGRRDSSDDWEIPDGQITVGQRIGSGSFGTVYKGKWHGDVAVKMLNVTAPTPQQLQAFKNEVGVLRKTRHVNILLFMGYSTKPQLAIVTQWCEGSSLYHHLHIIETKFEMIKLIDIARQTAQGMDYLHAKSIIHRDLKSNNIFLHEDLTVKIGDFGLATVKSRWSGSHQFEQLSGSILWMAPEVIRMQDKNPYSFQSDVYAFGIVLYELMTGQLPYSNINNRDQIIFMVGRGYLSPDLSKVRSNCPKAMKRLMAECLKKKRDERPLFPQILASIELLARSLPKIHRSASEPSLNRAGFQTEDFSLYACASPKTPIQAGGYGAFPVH
Put plainly: B-Raf kinase activity, IMAP coupled assay (B-Raf/MEK1/ERK2, fluorescence polarization). Type of experiment: biochemical. The conditions noted are these: bounds also given as pIC50 (>6, >7, >8); 60 min pre-incubation with compound, ATP 50 μM; read-out: IC50, B-Raf IMAP assay.
Text: (§1) In another assay the B-Raf kinase activity can be determined by using an IMAP assay (Immobilized Metal Assay for Phosphochemicals-based coupled assay). IMAP is a homogeneous fluorescence polarization (FP) assay based on affinity capture of phosphorylated peptide substrates. IMAP uses fluorescein-labeled peptide substrates that, upon phosphorylation by a protein kinase, bind to so called IMAP nanoparticles, which are derivatized with trivalent metal complexes. Such binding causes a change in the rate of the molecular motion of the peptide, and results in an increase in the FP value observed for the fluorescein label attached to the substrate peptide. In such an assay, B-Raf phosphorylates unactive MEK1. The phosphorylated MEK1 is capable of phosphorylating ERK2, which subsequently phosphorylates the fluorescein-labeled peptide substrate.
Determination of B-Raf Kinase Activity using an IMAP Assay
as §1, with “Inhibition of” for “In another assay the”, “was measured” for “can be determined by”, “Immobilized” for “IMAP assay (Immobilized”, “assay (IMAP).” for “assay).”, “this” for “such an”
Enzymes, substrate and ATP were diluted at all steps in Kinase Reaction buffer (10 mM Tris-HCl, 10 mM MgCl2, 0.01% Tween-20, 0.05% NaN3 pH 7.2, 1 mM DTT). The final volume at the kinase reaction step of the assay in the 384-well plate was 20 μl. The concentrations within brackets are final concentrations in the assay. B-Raf (GST-tagged human recombinant active B-Raf (Δ1-415), Upstate/Millipore; 0.2 U/ml) was pre-incubated with compounds or DMSO (1% final concentration) for 60 minutes at room temperature in the dark. Thereafter, MEK 1 (GST-tagged human recombinant unactive MEK1 (full-length); 64 ng/ml), ERK2 (GST-tagged human recombinant unactive ERK2 (full-length); 600 ng/ml), peptide substrate (Erktide, Molecular Devices; 50 nM) and ATP (50 μM) were added to the wells and the mix was incubated for another 60 minutes at 30° C. in the dark. Then, IMAP progressive binding buffer (75% 1× buffer A, 25% 1× buffer B, 1:900 Progressive Binding Reagent; Molecular Devices) was added followed by an incubation step of 60 minutes at room temperature in the dark. Finally, the FP signal was read on an Envision Multilabel reader (Perkin Elmer).

Experiment [2] relates to phosphorylation of ERK1/2 in A375 cells containing mutant B-Raf (V600E). Put plainly: Phospho-ERK FACE assay in A375 (B-Raf mutated) melanoma cell line. Type of experiment: cell-based. The conditions noted are these: Homo sapiens, A-375, A375 cells, 2 hours incubation, read-out: IC50, A375 melanoma phospho-ERK assay. Here is the method:
The B-Raf activity can also be determined in a B-Raf mutated melanoma cell line, such as the A375 cell line. Inhibition of phosphorylation of ERK1/2 can be measured using a Fast Activated Cell-based ELISA (FACE) from Active Motif (Carlsbad, U.S.A., CA). E.g. A375 cells, which are cells containing a mutant form of B-Raf (V600E) and thus contain high levels of phosphorylated ERK, can be incubated with Raf inhibitors. Then cells can be incubated with anti-phospho-ERK antibody and subsequently with horse radish peroxidase (HRP)-labeled secondary antibody. Finally, chemiluminescence reagents can be added, which react with HRP, to give a luminescence signal.
Determination of B-Raf Activity Using a A375 (B-Raf mutated) Melanoma Cell Line (Phospho-ERK FACE Assay)
Inhibition of phosphorylation of ERK1/2 was measured using a Fast Activated Cell-based ELISA (FACE) from Active Motif (Carlsbad, U.S.A., CA). Briefly, A375 cells, which are cells containing a mutant form of B-Raf (V600E) and thus contain high levels of phosphorylated ERK, were incubated for 2 hours with Raf inhibitors. Then, cells were fixed with paraformaldehyde, washed and following quenching and blocking, incubated with anti-phospho-ERK antibody, and as a control, on a separate plate, with ERK antibody. After washing and removal of the primary antibodies, the fixed cells were incubated with horse radish peroxidase (HRP)-labeled secondary antibody. Finally, chemiluminescence reagents were added, which react with HRP, to give a luminescence signal.
Detailed protocol: A375 cells were cultured in DMEM/F12 (Dulbecco's Modified Eagle Medium Nutrient Mixture F-12) (Invitrogen), supplemented with 10% fetal bovine serum (FBS) (Biowhittaker), 100 U/ml penicillin G and 100 μg/ml streptomycin (Gibco). For the phospho ERK assay, cells were seeded at a density of 15,000 cells/well in 100 μl culture medium in 96-well plates and incubated in a humidified atmosphere at 5% CO2 and 37° C. After 24 hours, cells were washed with DMEM/F12 supplemented with 0.1% FBS (assay medium 120 μl of assay medium was added and the plates were incubated overnight in a humidified atmosphere at 5% CO2 and 37° C. The next day, the assay medium was removed and compounds diluted in assay medium were added to the cells. Final DMSO concentration in the assay was 1%. After 2 hours incubation, cells were fixed by replacing the assay medium with 100 μl of 4% formaldehyde (Bio-Connect, Huissen, The Netherlands) in PBS. After 20 minutes of incubation at room temperature, cells were washed three times with 200 μl wash buffer (0.1% (vol/vol) Triton X-100 in PBS from the FACE kit) followed by an incubation of 20 minutes with 100 μl quenching buffer, containing 1% (vol/vol) hydrogen peroxide (Thermo Fisher Scientific) and 0.1% (vol/vol) sodium azide (Sigma-Aldrich) in phosphate-buffered saline. Cells were washed two times with wash buffer, incubated for 1 hour with 100 μl antibody blocking buffer from the kit and washed two times again. 40 μl of diluted antibody against phosphorylated ERK1/2 (1:500 from the FACE kit) was added and incubated overnight at 4° C. The phospho-ERK antibody has been raised against a synthetic phospho-peptide corresponding to residues Thr202 and Tyr204 of human ERK1 and Thr185 and Tyr187 of human ERK2. For the detection of total ERK, antibody against ERK1 and ERK2 (1:500 from the FACE kit) was added. The excessive primary antibody was washed out, and 100 μl diluted HRP-conjugated anti-rabbit IgG (1:2000 from the FACE kit) was added and incubated for 1 hour at room temperature. Secondary antibody was removed and cells were washed 3 times with wash buffer and twice with PBS. 50 μl per well of FACE chemiluminescent working solution was added. Chemiluminescence was measured on an Envision Multilabel reader.

The mark [3] stands for this setting: class given as below 100 nM (pIC50>7).
[4] abbreviates: between 1 μM and 100 nM (6<pIC50<7).

`Cc1ccc(NC(=O)c2cccc(C(C)(C)C#N)c2)cc1NC(=O)c1sc2nccnc2c1N` [Example 1, 7-amino-N-(5-(3-(2-cyanopropan-2-yl)benzamido)-2-methylphenyl)thieno[2,3-b]pyrazine-6-carboxamide]: the IC50 is < 10 nM in experiment [1] and < 100 nM in experiment [2] (setting [3]).
For the compound `CNc1c(C(=O)Nc2cc(NC(=O)c3cccc(C(C)(C)C#N)c3)ccc2C)sc2nccnc12` [Example 2, N-(5-(3-(2-cyanopropan-2-yl)benzamido)-2-methylphenyl)-7-(methylamino)thieno[2,3-b]pyrazine-6-carboxamide], the IC50 in experiment [1] is < 10 nM; in experiment [2] (setting [3]) it was < 100 nM.
As to `Cc1ccc(NC(=O)c2cccc(C(C)(C)C#N)c2)cc1NC(=O)c1sc2ncc(Br)nc2c1N` [Example 3, 7-amino-2-bromo-N-(5-(3-(2-cyanopropan-2-yl)benzamido)-2-methylphenyl)thieno[2,3-b]pyrazine-6-carboxamide], the figures for the IC50 in experiment [1] and in experiment [2] (setting [4]) were < 100 nM and 100 to 1000 nM, respectively.
With `Cc1ccc(NC(=O)c2cccc(C(C)(C)C#N)c2)cc1NC(=O)c1sc2ncc(N(C)C)nc2c1N` [Example 4, 7-amino-N-(5-(3-(2-cyanopropan-2-yl)benzamido)-2-methylphenyl)-2-(dimethylamino)thieno[2,3-b]pyrazine-6-carboxamide], the values for the IC50 in experiment [1] and in experiment [2] (setting [3]) were < 10 nM and < 100 nM, respectively.
Turning to `Cc1ccc(NC(=O)c2cccc(C(C)(C)C#N)c2)cc1NC(=O)c1sc2ncc(NCCN(C)C)nc2c1N` [Example 5, 7-amino-N-(5-(3-(2-cyanopropan-2-yl)benzamido)-2-methylphenyl)-2-(2-(dimethylamino)ethylamino)thieno[2,3-b]pyrazine-6-carboxamide], the IC50 in experiment [1] is < 10 nM; in experiment [2] (setting [4]), 100 to 1000 nM.
Regarding `CNc1cnc2sc(C(=O)Nc3cc(NC(=O)c4cccc(C(C)(C)C#N)c4)ccc3C)c(N)c2n1` [Example 6, 7-amino-N-(5-(3-(2-cyanopropan-2-yl)benzamido)-2-methylphenyl)-2-(methylamino)thieno[2,3-b]pyrazine-6-carboxamide], the values for the half-maximal inhibitory concentration (IC50) in experiment [1] and in experiment [2] (setting [3]) were < 10 nM and < 100 nM, respectively.
On the same counts, the results for `CCNc1cnc2sc(C(=O)Nc3cc(NC(=O)c4cccc(C(C)(C)C#N)c4)ccc3C)c(N)c2n1` [Example 7, 7-amino-N-(5-(3-(2-cyanopropan-2-yl)benzamido)-2-methylphenyl)-2-(ethylamino)thieno[2,3-b]pyrazine-6-carboxamide] are < 100 nM and < 100 nM.
Consider `Cc1ccc(NC(=O)c2cccc(C(C)(C)C#N)c2)cc1NC(=O)c1sc2ncc(N3CCN(C)CC3)nc2c1N` [Example 8, 7-amino-N-(5-(3-(2-cyanopropan-2-yl)benzamido)-2-methylphenyl)-2-(4-methylpiperazin-1-yl)thieno[2,3-b]pyrazine-6-carboxamide], for which the values for the IC50 in experiment [1] and in experiment [2] (setting [4]) were < 10 nM and 100 to 1000 nM, respectively.
Regarding `Cc1ccc(NC(=O)c2cccc(C(C)(C)C#N)c2)cc1NC(=O)c1sc2ncc(N3CCOCC3)nc2c1N` [Example 9, 7-amino-N-(5-(3-(2-cyanopropan-2-yl)benzamido)-2-methylphenyl)-2-morpholinothieno[2,3-b]pyrazine-6-carboxamide], the IC50 in experiment [1] was < 10 nM; in experiment [2] (setting [3]) it was < 100 nM.
On the same counts, the results for `COCCNc1cnc2sc(C(=O)Nc3cc(NC(=O)c4cccc(C(C)(C)C#N)c4)ccc3C)c(N)c2n1` [Example 10, 7-amino-N-(5-(3-(2-cyanopropan-2-yl)benzamido)-2-methylphenyl)-2-(2-methoxyethylamino)thieno[2,3-b]pyrazine-6-carboxamide] are < 10 nM and < 100 nM.
For `Cc1ccc(NC(=O)c2cccc(C(C)(C)C#N)c2)cc1NC(=O)c1sc2ncc(NC3CCOCC3)nc2c1N` [Example 11, 7-amino-N-(5-(3-(2-cyanopropan-2-yl)benzamido)-2-methylphenyl)-2-(tetrahydro-2H-pyran-4-ylamino)thieno[2,3-b]pyrazine-6-carboxamide] the same measures were < 100 nM and < 100 nM.
For `CCNc1cnc2sc(C(=O)Nc3cc(NC(=O)c4cccc(C(C)(C)C#N)c4)ccc3C)cc2n1` [Example 13, N-(5-(3-(2-cyanopropan-2-yl)benzamido)-2-methylphenyl)-2-(ethylamino)thieno[2,3-b]pyrazine-6-carboxamide] the same measures were < 100 nM and < 100 nM.
In the case of `Cc1ccc(NC(=O)c2cccc(C(C)(C)C#N)c2)cc1NC(=O)c1cc2nc(NCCN(C)C)cnc2s1` [Example 14, N-(5-(3-(2-cyanopropan-2-yl)benzamido)-2-methylphenyl)-2-(2-(dimethylamino)ethylamino)thieno[2,3-b]pyrazine-6-carboxamide], the IC50 in experiment [1] is < 100 nM; in experiment [2] (class between 10 μM and 1 μM (5<pIC50<6)), 1000 to 10000 nM.
With `CNc1cnc2cc(C(=O)Nc3cc(NC(=O)c4cccc(C(C)(C)C#N)c4)ccc3C)sc2n1` [Example 59, N-(5-(3-(2-cyanopropan-2-yl)benzamido)-2-methylphenyl)-3-(methylamino)thieno[2,3-b]pyrazine-6-carboxamide], the IC50 in experiment [2] (setting [4]) is 100 to 1000 nM.
